From ChEMBL document CHEMBL3045991, “Synthesis of new 2(1H)-quinoxalinone derivatives for antimicrobial and antiinflammatory evaluation” (Med Chem Res, 2009) come the findings set out here.

Series [1] concerns Rattus norvegicus. Kind of series: Gastrointestinal toxicity in Rattus norvegicus albino (rat) assessed as incidence of gastric ulceration at 0.9 mg/100 g body weight, po qd. The class given is organism-based, Stomach. To be noted: in vivo.
The test system of series [2] is Rattus norvegicus. Kind of series: Gastrointestinal toxicity in Rattus norvegicus albino (rat) assessed as ulcer index at 0.9 mg/100 g body weight, po qd. The class given is organism-based. To be noted: in vivo.
The subject of series [3] is Rattus norvegicus. The series is described as follows: Anti-inflammatory activity in Rattus norvegicus albino (rat) assessed as reduction of carrageenan-induced paw edema thickness at 0.9 mg/100 g body weight, ip administered 1 hr before carrageenan-challenge measured after 4 hr (reference value: 0.88 +/- 0.03 mm). The series is classed as functional. On the technique in general: Carrageenan injected into the paw causes an acute inflammation.

In series [4] the test system is Rattus norvegicus. The series is described as follows: Anti-inflammatory activity in Rattus norvegicus albino (rat) assessed as reduction of carrageenan-induced paw edema thickness at 0.9 mg/100 g body weight, ip administered 1 hr before carrageenan-challenge measured after 3 hr (reference value: 0.88 +/- 0.03 mm). The series is classed as functional.
Series [5] concerns Rattus norvegicus. The series is described as follows: Anti-inflammatory activity in Rattus norvegicus albino (rat) assessed as reduction of carrageenan-induced paw edema thickness at 0.9 mg/100 g body weight, ip administered 1 hr before carrageenan-challenge measured after 2 hr (reference value: 0.88 +/- 0.03 mm). The series is classed as functional.
Series [6] concerns Rattus norvegicus. Kind of series: Anti-inflammatory activity in Rattus norvegicus albino (rat) assessed as reduction of carrageenan-induced paw edema thickness at 0.9 mg/100 g body weight, ip administered 1 hr before carrageenan-challenge measured after 1 hr (reference value: 0.77 +/- 0.02 mm). The class given is functional.
In a further series the test system is Escherichia coli. The series is described as follows: Antibacterial activity against Escherichia coli at 10 mg/ml by cup-plate technique. The series is classed as functional. To be noted: read-out: DIZ.
Another series concerns Bacillus subtilis. Kind of series: Antibacterial activity against Bacillus subtilis at 10 mg/ml by cup-plate technique. The series is classed as functional. To be noted: read-out: DIZ.
The subject of another series is Staphylococcus aureus. The series is described as follows: Antibacterial activity against Staphylococcus aureus at 10 mg/ml by cup-plate technique. To be noted: read-out: DIZ. The class given is functional.

Structures are written as SMILES.

As to `CCn1c(S)nnc1Cc1nc2ccccc2[nH]c1=O`, the Activity in the series with Rattus norvegicus [1] was 0%; with Rattus norvegicus [3], 0.67 mm; with Rattus norvegicus [4], 0.52 mm; in the series on Rattus norvegicus [5], 0.5 mm; with Rattus norvegicus [6] it was 0.5 mm. Also, the UI with Rattus norvegicus [2] is 0.

With `O=C(CC1=NC2CCCCC2NC1=O)NN1C(=O)c2ccccc2C1=O` (stereo not drawn), in the series with Escherichia coli, the zone of inhibition at 10000 µg/mL was 6 mm.

For the molecule `O=C1NC2CCCCC2N=C1/C=N/Nc1ccc(Cl)cc1` (stereo not drawn), the zone of inhibition at 10000 µg/mL in the series with Escherichia coli came to 6 mm; in the series with Bacillus subtilis, 15 mm; with Staphylococcus aureus, 16 mm.

For the molecule `O=C1NC2CCCCC2N=C1/C=N/Nc1ccc(F)cc1` (stereo not drawn), the zone of inhibition at 10000 µg/mL with Escherichia coli stood at 7 mm; in the series with Bacillus subtilis it was 17 mm; in the series on Staphylococcus aureus, 16 mm.

Take `O=C1NC2CCCCC2N=C1/C=N/Nc1ccc(Br)cc1` (stereo not drawn): the results for the zone of inhibition at 10000 µg/mL with Escherichia coli, with Bacillus subtilis and with Staphylococcus aureus were 8 mm, 11 mm and 13 mm, respectively.

For `COc1ccc2c(c1)c(CC(=O)O)c(C)n2C(=O)c1ccc(Cl)cc1` [INDOMETHACIN], the Activity in the series with Rattus norvegicus [1] stood at 100%. Also, in the series on Rattus norvegicus [2], the UI was 500.

`O=C(O)c1cn(C2CC2)c2cc(N3CCNCC3)c(F)cc2c1=O` [CIPROFLOXACIN]: the zone of inhibition at 10000 µg/mL was determined as 12 mm in the series on Escherichia coli, 19 mm with Bacillus subtilis and 17 mm with Staphylococcus aureus.

`O=c1[nH]c2ccccc2nc1Cc1nnc(S)n1-c1ccccc1`: the Activity in the series with Rattus norvegicus [1] came out at 0%; in the series on Rattus norvegicus [3] it was 0.47 mm; with Rattus norvegicus [4], 0.52 mm; in the series with Rattus norvegicus [5], 0.55 mm; in the series on Rattus norvegicus [6], 0.55 mm. For the same molecule, the UI in the series on Rattus norvegicus [2] was 0.

For the molecule `O=C(Cc1nc2ccccc2[nH]c1=O)NNC(=S)Nc1ccccc1`, the zone of inhibition at 10000 µg/mL in the series on Escherichia coli was determined as 8 mm; in the series on Bacillus subtilis, 9 mm; with Staphylococcus aureus, 10 mm.

On to `O=C(CC1=NC2CCCCC2NC1=O)NNC(=S)Nc1ccccc1` (stereo not drawn), for which the zone of inhibition at 10000 µg/mL turned out to be 12 mm in the series on Escherichia coli, 18 mm in the series with Bacillus subtilis and 16 mm in the series on Staphylococcus aureus.

For `O=C(Cc1nc2ccccc2[nH]c1=O)Nn1c(-c2ccccc2)csc1=S`, the Activity with Rattus norvegicus [1] stood at 80%; with Rattus norvegicus [3], 0.52 mm; in the series on Rattus norvegicus [4] it was 0.55 mm; in the series with Rattus norvegicus [5], 0.55 mm; with Rattus norvegicus [6], 0.57 mm. Further, the UI in the series with Rattus norvegicus [2] turned out to be 240.

As for `C=CCNC(=S)NNC(=O)Cc1nc2ccccc2[nH]c1=O`, the zone of inhibition at 10000 µg/mL was determined as 7 mm in the series on Escherichia coli, 8 mm with Bacillus subtilis and 9 mm with Staphylococcus aureus.

Regarding `Nn1c(S)nnc1Cc1nc2ccccc2[nH]c1=O`, the Activity with Rattus norvegicus [1] was found to be 0%; in the series with Rattus norvegicus [3], 0.62 mm; in the series on Rattus norvegicus [4], 0.6 mm; in the series on Rattus norvegicus [5], 0.62 mm; in the series on Rattus norvegicus [6], 0.67 mm. Further, the UI in the series with Rattus norvegicus [2] is reported as 0.

As for `O=C1NC2CCCCC2N=C1/C=N/Nc1ccccc1` (stereo not drawn), the zone of inhibition at 10000 µg/mL in the series on Escherichia coli is 4 mm; with Bacillus subtilis, 8 mm; in the series with Staphylococcus aureus, 6 mm.

Take `C=CCNC(=S)NNC(=O)CC1=NC2CCCCC2NC1=O` (stereo not drawn): the zone of inhibition at 10000 µg/mL was 9 mm with Escherichia coli, 11 mm with Bacillus subtilis and 12 mm in the series with Staphylococcus aureus.

As for `Cc1ccc(N/N=C/C2=NC3CCCCC3NC2=O)cc1` (stereo not drawn), the figures for the zone of inhibition at 10000 µg/mL in the series on Escherichia coli, with Bacillus subtilis and in the series with Staphylococcus aureus were 5 mm, 7 mm and 6 mm, respectively.

Regarding `Cc1ccc(-c2cc(C(F)(F)F)nn2-c2ccc(S(N)(=O)=O)cc2)cc1` [CELECOXIB], the Activity is reported as 0% in the series on Rattus norvegicus [1]; 0.5 mm in the series with Rattus norvegicus [3]; 0.45 mm with Rattus norvegicus [4]; 0.42 mm in the series with Rattus norvegicus [5]; 0.45 mm with Rattus norvegicus [6]. The UI with Rattus norvegicus [2] is recorded as 0.

For the molecule `Cc1ccc(-c2csc(=S)n2NC(=O)Cc2nc3ccccc3[nH]c2=O)cc1`, the Activity with Rattus norvegicus [1] amounted to 0%; in the series with Rattus norvegicus [3] it was 0.55 mm; with Rattus norvegicus [4], 0.6 mm; with Rattus norvegicus [5] it was 0.67 mm; in the series on Rattus norvegicus [6] it was 0.7 mm. For the same molecule, the UI in the series on Rattus norvegicus [2] worked out at 0.

Turning to `O=c1[nH]c2ccccc2nc1Cc1nnc(S)o1`, the Activity was 80% in the series on Rattus norvegicus [1]; 0.52 mm with Rattus norvegicus [3]; 0.6 mm with Rattus norvegicus [4]; 0.52 mm in the series on Rattus norvegicus [5]; 0.57 mm in the series with Rattus norvegicus [6]. The UI in the series with Rattus norvegicus [2] was 240. Moreover, the zone of inhibition at 10000 µg/mL in the series on Bacillus subtilis amounted to 10 mm; in the series with Staphylococcus aureus it was 11 mm.

As to `O=C(Cc1nc2ccccc2[nH]c1=O)Nn1c(-c2ccc(Cl)cc2)csc1=S`, the Activity with Rattus norvegicus [1] is on record as 0%; in the series on Rattus norvegicus [3], 0.45 mm; in the series with Rattus norvegicus [4], 0.47 mm; with Rattus norvegicus [5], 0.5 mm; with Rattus norvegicus [6] it was 0.55 mm. In addition, in the series with Rattus norvegicus [2], the UI is on record as 0.
